Common to all, as to format: functional
What all share (details): J774, 24 h

Assay [1] relates to J774. Briefly: Antiinflammatory activity in mouse J774 cells assessed as inhibition of LPS-induced NO production at 10 uM after 24 hrs by Griess method. In general terms: The Griess reaction detects nitrite, a stable product of nitric oxide.
The test system of assay [2] is J774. Kind of assay: Antiinflammatory activity in mouse J774 cells assessed as inhibition of LPS-induced NO production at 30 uM after 24 hrs by Griess method.
For assay [3], the system named is J774. Kind of assay: Antiinflammatory activity in mouse J774 cells assessed as inhibition of LPS-induced NO production at 100 uM after 24 hrs by Griess method.

What is called inhibition is how much of the control response was suppressed.

Regarding `CCCCCCCCCCCCCCO[C@H]1OC[C@@H](O[C@H]2OC[C@@H](O)[C@@H](OC(C)=O)[C@@H]2OC(C)=O)[C@@H](O)[C@@H]1OC(C)=O` [SINULARIOSIDE], the inhibition at 10 µM in the assay with J774 [1] amounted to 6%. The inhibition at 30 µM in the assay on J774 [2] was determined as 58.2%. In the assay with J774 [3], the inhibition at 100 µM is 92.3%.

For the origin of these results see ChEMBL document CHEMBL2016490, “Sinularioside, a triacetylated glycolipid from the Indonesian soft coral Sinularia sp., is an inhibitor of NO release” (2012).
